Data published in patent US10174339B2 (priority 2011, dated 2019).
Values joined by “and” are separate entries in the source; they are usually repeats but may differ in a detail not shown here. Identical values can stand only once. Like-named read-outs stand apart in the source and are kept apart here. Ends that are not written are not given here.

Assays:
Fusarium graminearum [1] = type: cell-based; settings: for IC50: read-out: IC50 against Fusarium graminearum (Fgr); for inhibition of growth of F. graminearum, more than NaD1: 0.825 ppm
[2] = test system: Colletotrichum graminicola; experiment: Transgenic corn leaf sheath bioassay, lesion area, C. graminicola; settings: in vivo
C. gattii = type: cell-based, Cryptococcus gattii
Fusarium verticilloides = type: cell-based; settings: 3.25 ppm
[3] = test system: Asian soybean rust (Phakopsora pachirhizi); type: cell-based; settings: 10 ppm
Aspergillus niger = type: cell-based
C. neoformans (C2067) = type: cell-based, Cryptococcus neoformans; settings: 6.5 ppm
[4] = test system: Colletotrichum graminicola; type: cell-based
[5] = test system: Colletotrichum graminicola; type: cell-based; settings: 13 ppm
[6] = test system: Cryptococcus neoformans (C1065); type: cell-based; settings: 13 ppm
Fusarium graminearum [7] = type: cell-based
Fusarium graminearum [8] = settings: in vivo

Molecule: TPP3: Class II solanaceous defensin (Solanum lycopersicum), SEQ ID NO:5, parent protein of HXP107 (QQICKAPSQTFPGLCFMDSSCRKYCIKEKFTGGHCSKLQRKCLCTKPC; Synthetic construct Amino acid sequence of portion of TPP3 (Solanum lycopersicum) containing Loop 1B) [reference compound]
- IC50 (Fusarium graminearum [1]): 200 nM

Molecule: HXP4: NaD2 Loop 1B (HRFKGP) in NaD1 backbone, SEQ ID NO:39 (RECKTESHRFKGPCITKPPCRKACISEKFTDGHCSKILRRCLCTKPC; ends and bridges not checked; cysteine pairing not given here)
- Percent inhibition relative of empty vector control (reduction in lesion area), Cgr [2]: 26%
- inhibition of growth of C. gatti, more than NaD1 (C. gattii; 6.5 ppm): 38%
- inhibition of growth of C. gatti, more than NaD1 (C. gattii; 13 ppm): 10%
- inhibition of growth of F. verticilloides, more than NaD1 (Fusarium verticilloides): 40.9%
- inhibition of appresorium formation, more than NaD1 ([3]; 24 hours): 65%
- inhibition of germination of Asian soybean rust, more than NaD1 ([3]; 24 hours): 62%
- inhibition of formation of post-appresorium structures, more than NaD1 ([3]; 48 hours): 59%
- activity expressed as percent of NaD1, A. niger (Aspergillus niger; 13 ppm): greater than 112%
- inhibition of growth of A. niger, more than NaD1 (Aspergillus niger; 13 ppm): 20.6%
- inhibition of growth of A. niger, more than NaD1 (Aspergillus niger; 26 ppm): at least 10%
- inhibition of growth of A. niger, more than NaD1 (Aspergillus niger; 53 ppm): at least 10%
- inhibition of growth of C. neoformans (C2067) (C. neoformans (C2067)): more than 80%
- inhibition of growth of F. graminearum, more than NaD1 (Fusarium graminearum [1]): 41.7%
- synergy with protease inhibitors against Colletotrichum graminicola [4]: synergistic with protease inhibitors
- inhibition of growth of C. graminicola, more than NaD1 [5]: 61.3%
- activity as percent of the activity of NaD1, C. neoformans (C1065) [6]: more than 596%
- inhibition of growth of Cryptococcus neoformans (C1065) [6]: completely inhibited
- synergistic effect with protease inhibitors against Fusarium graminearum (Fusarium graminearum [7]): greater synergistic effect with protease inhibitors than NaD1

Molecule: HXP107: NaD2 Loop 1B in TPP3 backbone, SEQ ID NO:85 (QQICKAPSHRFKGPCFMDSSCRKYCIKEKFTGGHCSKLQRKCLCTKPC; Synthetic construct TPP3 backbone with NaD2 Loop 1B)
- IC50 (Fusarium graminearum [1]): 500 nM

Molecule: HXP35: PSD1 Loop 1B (DTYRGV) in NaD1 backbone, SEQ ID NO:41 (RECKTESDTYRGVCITKPPCRKACISEKFTDGHCSKILRRCLCTKPC; ends and bridges not checked; cysteine pairing not given here)
- inhibition of growth of F. verticilloides, more than NaD1 (Fusarium verticilloides): 5.1%
- inhibition of growth of F. graminearum, more than NaD1 (Fusarium graminearum [1]): 34.5%
- inhibition of growth of C. graminicola, more than NaD1 [5]: 83.2%

Molecule: HXP34: Zea2 Loop 1B (QHHSFP) in NaD1 backbone, SEQ ID NO:40 (RECKTESQHHSFPCITKPPCRKACISEKFTDGHCSKILRRCLCTKPC; ends and bridges not checked; cysteine pairing not given here)
- inhibition of growth of F. verticilloides, more than NaD1 (Fusarium verticilloides): 29.4%
- inhibition of growth of F. graminearum, more than NaD1 (Fusarium graminearum [1]): 14.6%
- inhibition of growth of C. graminicola, more than NaD1 [5]: 21.8%

B1: NaPin1A: Nicotiana alata type I proteinase inhibitor (protein)
chain: QSGCPGVTKERWPELLGTPAKFAMQIIQKENPKLTNVQTILNGRPVTEDLRCNRVRLFVNVLDFVVQTPQVG
modifications: Synthetic construct Amino acid sequence of NaPin1A
- Ee, expected effect from the additive response (Limpel's formula) [4]: 11.8 percent inhibition
- Io, percent inhibition observed [4]: 69.3 percent inhibition

B2: HXP4 + HvCPI6: barley cystatin HvCPI6 and modified defensin HXP4 co-expressed from one construct in corn, SEQ ID NO:83 (protein)
chain: MANKHLSLSLFLVLLGLSASLASGATSALGRRGVLLGGWSPVKDVNDPHVQELGGWAVAQHASLAKDGLLFRRVTRGEQQVVSGMNYRLFVVAADGSGKRVTYLAQIYEHWSRTRKLTSFKPAAGGEEKKNRECKTESNTFPGICITKPPCRKACISEKFTDGHCSKILRRCLCTKPCVFDEKMTKTGAEILAEEAKTLAAALLEEEIMDN
modifications: Synthetic construct Amino acid sequence of HvCPI6-L-HXP4-CTPP
- Percent inhibition relative of empty vector control (reduction in lesion area), Fgr (Fusarium graminearum [8]): 45%

B3: CI-1B: barley type-I inhibitor, recombinant (protein)
chain: MRSMEGSVPKYPEPTEGSIGASGAKRSWPEVVGMSAEKAKEIILRDKPDAQIEVIPVDAMVPLDFNPNRIFILVAVARTPTVG
modifications: Synthetic construct Amino acid sequence of CI-1B
- Ee, expected effect from the additive response (Limpel's formula) (Fusarium graminearum [7]): 12.1 percent inhibition and 17.1 percent inhibition
